Laboratory results reported in patent publication US9278163B2, “Implantable polymeric device for sustained release of dopamine agonist” (Titan Pharmaceuticals, Inc., priority 2003, dated 2016).
Where a name gives a salt, the structure may show the parent alone.

System: MPTP-lesioned, L-DOPA-naïve cynomolgus monkeys
Assay: In vivo evaluation of implants vs pulsatile subcutaneous injections ("ON" status, dyskinesia)

time to development of dyskinesias (daily subcutaneous injections, 0.2 mg/kg, range 7-10): 8.3 days
SMILES: CN1CCc2cccc3c2[C@H]1Cc1ccc(O)c(O)c1-3 [apomorphine, Apomorphine HCl]
minimally-effective dose to achieve "ON" status (daily subcutaneous injection): 0.2 mg/kg | development of dyskinesia (duration of treatment up to six months for implants, daily injections 0.2 mg/kg): all animals in the pulsatile injection group developed dyskinesias | duration of "ON" state after each administration (pulsatile daily subcutaneous injections, 0.2 mg/kg): approximately 90 minutes
